Data as given in patent publication US9145351B2, “Azole derivatives, methods for producing the same, intermediate thereof, agro-horticultural agents” (KUREHA CORPORATION, priority 2009, dated 2015).
Where two headings read alike, the source gives them in different places.

Legend:
Type in all cases: cell-based
Phaeosphaeria nodorum = experiment: Plate medium fungicidal assay, wheat Septoria nodorum blotch P.n (Experimental Example 5); conditions: Parastagonospora nodorum
In short: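 Compound in DMSO mixed into PDA plate medium at 50 mg/L and 5 mg/L; 4 mm mycelial plug of pre-cultured fungus inoculated onto plate. Colony diameter compared with untreated plate, % mycelial growth inhibition = 100(dc−dt)/dc, scored in 5 grades.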

Trichoderma sp. = experiment: Plate medium assay, industrial material deteriorating microorganism, Trichoderma (Experimental Example 5); conditions: treatment at 50 mg/l, PDA plate medium, read-out: growth inhibition grade
Protocol: (§1) In this Experimental Example, the fungicidal effects of the inventive compounds on various phytopathogenic fungi for plants and hazardous microorganism for industrial materials were examined by the methods described below. Each inventive compound was dissolved in 2 ml of dimethyl sulfoxide. 0.6 ml of this solution was added to 60 nil of a PDA medium (potato dextrose agar medium) at about 60 degrees C., which was mixed thoroughly in a 100-ml conical flask, and poured into a dish, where it was solidified, thereby obtaining a plate medium containing the inventive compound at 50 mg/L and 5 mg/L. On the other hand, a subject microorganism previously cultured on a plate medium was cut out using a cork borer whose diameter was 4 mm, and inoculated to the test compound-containing plate medium described above. […] The growth degree of the microorganism on the test compound-containing plate medium thus observed was compared with the growth degree of the microorganism in the untreated group, and % mycelial growth inhibition was calculated by the following equation. R=100(dc-dt)/dc wherein R=% mycelial extension inhibition, dc=flora diameter in untreated plate, dt=flora diameter in treated plate. The results obtained as described above were evaluated as one of the 5 grades according to the following criteria.

Alternaria alternata = experiment: Plate medium fungicidal assay, Alternaria blotch A.m (Experimental Example 5); conditions: Alternaria alternata
In short: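 Compound dissolved in DMSO and mixed into PDA plates at 50 mg/L and 5 mg/L; 4 mm mycelial plug inoculated. Colony diameter compared with untreated plates, % mycelial growth inhibition = 100(dc−dt)/dc, converted to one of 5 grades.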

Fusarium oxysporum = experiment: Plate medium fungicidal assay, cucumber fusarium wilt F.c (Experimental Example 5); conditions: Fusarium oxysporum
In short: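 Compound in DMSO mixed into PDA agar to give plates at 50 mg/L and 5 mg/L, then inoculated with 4 mm mycelial plug. Colony diameter compared with untreated plate as % mycelial growth inhibition, R=100(dc−dt)/dc, then scored on a 5-grade scale.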

[1] = test system: Pseudocercoporella herpotrichoides; experiment: Plate medium fungicidal assay, wheat eye spot P.h (Experimental Example 5)
In short: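 Compound in DMSO mixed into PDA agar for plates at 50 mg/L and 5 mg/L, inoculated with a 4 mm mycelial plug of Pseudocercosporella herpotrichoides. Colony diameter compared with untreated plates: % mycelial growth inhibition = 100(dc−dt)/dc, scored on a 5-grade scale.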

Fusarium graminearum = experiment: microbe, parasite or virus in culture; conditions: Fusarium graminearum
Tyromyces palustris = experiment: Plate medium assay, wood denaturing microorganism Oouzuratake (Experimental Example 5); conditions: treatment at 50 mg/l, PDA plate medium; read-out: growth inhibition grade
Protocol: as §1

[2] = plate medium, 5 mg/L, read-out: growth inhibition grade P.n
[3] = plate medium, 50 mg/L, read-out: growth inhibition grade P.n
[4] = plate medium, 5 mg/L, read-out: growth inhibition grade A.m
[5] = plate medium, 50 mg/L, read-out: growth inhibition grade A.m
[6] = plate medium, 5 mg/L, read-out: growth inhibition grade F.c
[7] = plate medium, 50 mg/L, read-out: growth inhibition grade F.c
[8] = plate medium, 5 mg/L, read-out: growth inhibition grade P.h
[9] = plate medium, 50 mg/L, read-out: growth inhibition grade P.h
[10] = read-out: growth inhibition grade F.g
[11] = plate medium containing compound at 5 mg/L, read-out: Growth inhibition grade, P.n
[12] = plate medium containing compound at 50 mg/L, read-out: Growth inhibition grade, P.n
[13] = plate medium containing compound at 5 mg/L, read-out: Growth inhibition grade, A.m
[14] = plate medium containing compound at 50 mg/L, read-out: Growth inhibition grade, A.m
[15] = plate medium containing compound at 5 mg/L, read-out: Growth inhibition grade, F.c
[16] = plate medium containing compound at 50 mg/L, read-out: Growth inhibition grade, F.c
[17] = plate medium containing compound at 5 mg/L, read-out: Growth inhibition grade, P.h
[18] = plate medium containing compound at 50 mg/L, read-out: Growth inhibition grade, P.h
[19] = read-out: Growth inhibition grade, F.g

| SMILES | inhibition at 5 µg/mL (Phaeosphaeria nodorum; [2]) | inhibition at 50 µg/mL (Phaeosphaeria nodorum; [3]) | inhibition at 50 µg/mL (Trichoderma sp.) | inhibition at 5 µg/mL (Alternaria alternata; [4]) | inhibition at 50 µg/mL (Alternaria alternata; [5]) | inhibition at 5 µg/mL (Fusarium oxysporum; [6]) | inhibition at 50 µg/mL (Fusarium oxysporum; [7]) | inhibition at 5 µg/mL [1, 8] | inhibition at 50 µg/mL [1, 9] | inhibition at 5 µg/mL (Fusarium graminearum; [10]) | inhibition at 50 µg/mL (Fusarium graminearum; [10]) | inhibition at 50 µg/mL (Tyromyces palustris) | inhibition at 5 µg/mL (Phaeosphaeria nodorum; [11]) | inhibition at 50 µg/mL (Phaeosphaeria nodorum; [12]) | inhibition at 5 µg/mL (Alternaria alternata; [13]) | inhibition at 50 µg/mL (Alternaria alternata; [14]) | inhibition at 5 µg/mL (Fusarium oxysporum; [15]) | inhibition at 50 µg/mL (Fusarium oxysporum; [16]) | inhibition at 5 µg/mL [1, 17] | inhibition at 50 µg/mL [1, 18] | also measured |
| --- | --- | --- | --- | --- | --- | --- | --- | --- | --- | --- | --- | --- | --- | --- | --- | --- | --- | --- | --- | --- | --- |
| CC(Cl)=C[C@]1(C)CC[C@@H](Cc2ccc(Cl)cc2)[C@]1(O)Cn1cncn1 (racemic) [Compound I-115, (1RS,2SR,5SR)-5-(4-chlorobenzyl)-2-(2-chloropropenyl)-2-methyl-1-(1H-1,2,4-triazol-1-ylmethyl)cyclopentanol] | 60 to 80% | > 80% | 60 to 80% | > 80% | > 80% | > 80% | > 80% | > 80% | > 80% | > 80% | > 80% | 60 to 80% |  |  |  |  |  |  |  |  |  |
| C[C@]1(CCl)CC[C@@H](Cc2ccc(F)cc2)[C@]1(O)Cn1cncn1 (racemic) [Compound I-77, (1RS,2SR,5SR)-2-chloromethyl-5-(4-fluorobenzyl)-2-methyl-1-(1H-1,2,4-triazol-1-ylmethyl)cyclopentanol] | > 80% | > 80% | 60 to 80% | > 80% | > 80% | > 80% | > 80% | > 80% | > 80% | > 80% | > 80% | 60 to 80% | > 80% | > 80% | > 80% | > 80% | > 80% | > 80% | > 80% | > 80% | inhibition at 5 µg/mL (Fusarium graminearum; [19]): > 80%; inhibition at 50 µg/mL (Fusarium graminearum; [19]): > 80% |
| C[C@]1(CCl)CC[C@@H](Cc2cccc(Cl)c2)[C@]1(O)Cn1cncn1 (racemic) [Compound I-74, (1RS,2SR,5SR)-5-(3-chlorobenzyl)-2-chloromethyl-2-methyl-1-(1H-1,2,4-triazol-1-ylmethyl)cyclopentanol] |  |  | 60 to 80% |  |  |  |  |  |  |  |  | 60 to 80% | > 80% | > 80% | 60 to 80% | > 80% | > 80% | > 80% | > 80% | > 80% | inhibition at 5 µg/mL (Fusarium graminearum; [19]): > 80%; inhibition at 50 µg/mL (Fusarium graminearum; [19]): > 80% |
| CC[C@]1(CCl)CC[C@@H](Cc2ccc(Cl)cc2)[C@]1(O)Cn1cncn1 (racemic) [Compound I-36, (1RS,2SR,5SR)-5-(4-chlorobenzyl)-2-chloromethyl-2-ethyl-1-(1H-1,2,4-triazol-1-ylmethyl)cyclopentanol] |  |  | 60 to 80% |  |  |  |  |  |  |  |  | 60 to 80% | > 80% | > 80% | > 80% | > 80% | > 80% | > 80% | > 80% | > 80% | inhibition at 5 µg/mL (Fusarium graminearum; [19]): > 80%; inhibition at 50 µg/mL (Fusarium graminearum; [19]): > 80% |
| C[C@]1(CCl)CC[C@@H](Cc2ccccc2)[C@]1(O)Cn1cncn1 (racemic) [Compound I-73, (1RS,2SR,5SR)-2-chloromethyl-5-benzyl-2-methyl-1-(1H-1,2,4-triazol-1-ylmethyl)cyclopentanol] | > 80% | > 80% | 60 to 80% | > 80% | > 80% | > 80% | > 80% | > 80% | > 80% | > 80% | > 80% | 60 to 80% | > 80% | > 80% | > 80% | > 80% | > 80% | > 80% | > 80% | > 80% | inhibition at 5 µg/mL (Fusarium graminearum; [19]): > 80%; inhibition at 50 µg/mL (Fusarium graminearum; [19]): > 80% |
| C[C@]1(CBr)CC[C@@H](Cc2ccccc2)[C@]1(O)Cn1cncn1 (racemic) [Compound I-602, (1RS,2SR,5SR)-2-bromomethyl-5-benzyl-2-methyl-1-(1H-1,2,4-triazol-1-ylmethyl)cyclopentanol] | 40 to 60% | > 80% | 60 to 80% | 60 to 80% | > 80% | > 80% | > 80% | 40 to 60% | > 80% | > 80% | > 80% | 60 to 80% |  |  |  |  |  |  |  |  |  |
| O[C@]1(Cn2cncn2)[C@@H](Cc2ccc(Cl)cc2)CC[C@@H]1C(F)(F)F (racemic) [Compound I-365, (1RS,2SR,5RS)-5-(4-chlorobenzyl)-2-trifluoromethyl-1-(1H-1,2,4-triazol-1-ylmethyl)cyclopentanol] | 40 to 60% | > 80% | 60 to 80% | 20 to 40% | > 80% | 20 to 40% | > 80% | 20 to 40% | > 80% | 20 to 40% | > 80% | 60 to 80% |  |  |  |  |  |  |  |  |  |
